In patent US20230235374A1, “High Throughput Assays for Detecting Translation Readthrough Inducers” (The Trustees of the University of Pennsylvania, priority 2021, published 2023):

Experiments:
[1] = biological target: T1, near-cognate aa-tRNA.eEF1A.GTP complex (TC) binding at a stop codon (Saccharomyces cerevisiae, UniProt P02994); conditions: Ng et al., 2021; cited from earlier work
T1 sequence (P02994 2-458 limits assumed): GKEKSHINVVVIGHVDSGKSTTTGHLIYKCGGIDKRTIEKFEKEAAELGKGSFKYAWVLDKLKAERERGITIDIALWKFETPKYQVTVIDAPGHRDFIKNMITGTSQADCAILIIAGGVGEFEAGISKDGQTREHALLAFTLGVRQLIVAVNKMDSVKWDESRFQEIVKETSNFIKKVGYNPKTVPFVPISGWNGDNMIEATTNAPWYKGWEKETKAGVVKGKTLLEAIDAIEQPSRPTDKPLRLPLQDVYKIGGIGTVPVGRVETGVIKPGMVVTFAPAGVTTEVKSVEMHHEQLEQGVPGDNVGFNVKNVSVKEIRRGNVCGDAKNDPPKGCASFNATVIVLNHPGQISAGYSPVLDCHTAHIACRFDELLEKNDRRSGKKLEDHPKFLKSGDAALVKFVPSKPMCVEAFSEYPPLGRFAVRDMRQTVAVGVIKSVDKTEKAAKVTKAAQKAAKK

[2] = tested on: premature stop codon in Stop-POST5 complex; assay: PURE-LITE readthrough assay; type: biochemical, shrimp (Artemia salina); conditions: FIG. 2A, read-out: apparent EC50, readthrough efficacy
Experimental: FIG. 2A, FIG. 2B, FIG. 2C, FIG. 2D, FIG. 2E, and FIG. 2F are graphs showing AzAt Photoaffinity Labeling and binding. FIG. 2A is a graph showing the readthrough efficacy of AzAt measured by PURE-Lite readthrough assay. AzAt is shown to display similar sigmoidal response as ataluren and ataluren-like compounds (Ng et al., 2018), with the apparent EC50 of 50±10 μM. FIG. 2B illustrates AzAt photoincorporation into Stop-POST5 and the RNA fraction of Stop-POST5. FIG. 2C illustrates AzAt photoincorporation into 80S-IRES and the total RNA isolated from 80S.IRES. All of the labeling stoichiometries in FIG. […] are normalized to the saturation labeling of Stop-POST5, which was equal to 1.2/Stop-POST5. FIG. 2D illustrates AzAt photoincorporation into eRF1 both alone and complexed with eRF3.GDPNP. The values are normalized to the saturation labeling of isolated eRF1. FIG. 2E illustrates inhibition of AzAt photoincorporation by the addition of either ataluren or GJ072. FIG. 2F is a graph showing Photoaffinity labeling of eRF3 alone or within release factor ternary complex. […] FIG. 2G and FIG. 2H are graphs showing the RNA-seq reads coverage as the effective reads per nucleotide. PRE: treated with 300 μM prephotolysed AzAt; PAL: treated with 300 μM AzAt. 26S-rRNA nucleotides 1-45 were unable to be mapped due to the lack of sequence information. […]

80S.IRES complex = assay: [3H]-AzAt photoaffinity labeling of 80S.IRES complex; type: binding, shrimp (Artemia salina); conditions: FIG. 2C
Experimental: Photoaffinity labeling with [^3H]-AzAt. Samples in Buffer 4, typically 20 μL, were incubated in the dark (20 min for Stop-POST5 and 80S-IRES complexes, 2 min for release factors) with various concentrations of [^3H]-AzAt at 37° C., transferred to a UV-transparent cuvette which was covered with parafilm to prevent evaporation, and irradiated in a Rayonet photochemical reactor equipped with 300 nm UV lamps for 5 min at room temperature. This was followed by quenching with 2 mM DTT at 37° C. for 5 min under ambient light. The irradiation time gave complete photolysis of the phenyl azide moiety in AzAt. Photolysis was also complete at 5 min in the presence of 1 mM ataluren, ruling out internal filtering effects.
Stop-POST5 and 80S-IRES complexes. 1 μM solutions of either Stop-POST5 or 80S-S.IRES, determined by A260, were photolabeled by [^3H]-AzAt. The sample was then either directly purified by ultracentrifugation through a sucrose cushion to determine the photoincorporation stoichiometry in the complex, or subjected to phenol/chloroform extraction to determine the photoincorporation stoichiometry in the total RNA. […]

Structure (SMILES) | effect on productive binding of near-cognate TC at a stop codon [1] | EC50 [2] | photoincorporation stoichiometry into 80S.IRES, lower vs. Stop-POST5 (80S.IRES complex)
O=C(O)c1cccc(-c2noc(-c3ccccc3F)n2)c1 [Ataluren] | no effect |  | 
[N-]=[N+]=Nc1ccc(-c2nc(-c3cccc(C(=O)O)c3)no2)cc1 [AzAt] |  | 50 ± 10 µM | 25%
